pKd: −log10 of the molar value. Ends that are not written are not given here.

Three compounds from paper PMC9482650, “Quantitative fragmentomics allow affinity mapping of interactomes” (Nature Communications, 2022) can be followed below.

Among the targets are LNX2_2 PDZ (Homo sapiens, UniProt Q8N448); GOPC PDZ (Homo sapiens, UniProt Q9HD26); RADIL PDZ (Homo sapiens, UniProt Q96JH8); Inadl_8 PDZ (Homo sapiens, UniProt Q8NI35); Inadl_5 PDZ (Homo sapiens, UniProt Q8NI35); MPDZ_10 PDZ (Homo sapiens, UniProt O75970); GRIP2_2 PDZ (Homo sapiens, UniProt Q9C0E4); MAGI1_4 PDZ (Homo sapiens, UniProt Q96QZ7).
Common to all, as to assay: Holdup assay
Common to all, as to format: binding

The target in a further experiment is MAGI2_6 PDZ (Homo sapiens, UniProt Q86UL8). As to conditions: composite holdup affinity; 0.00=below quantification threshold; read-out: COMP pKd (converted).
For another experiment, the target named is DLG5_2 PDZ (Homo sapiens, UniProt Q8TDM6). As to conditions: sheet PPI_convert; read-out: affinity to PDZ DLG5_2 (converted).
A further experiment has as its target DLG5_4 PDZ (Homo sapiens, UniProt Q8TDM6). As to conditions: sheet PPI_convert; read-out: affinity to PDZ DLG5_4 (converted).
For another experiment, the target named is IL16_2 PDZ (Homo sapiens, UniProt Q14005). As to conditions: sheet PPI_convert; read-out: affinity to PDZ IL16_2 (converted).
Another experiment addresses MAGI1_3 PDZ (Homo sapiens, UniProt Q96QZ7). As to conditions: sheet PPI_convert; read-out: affinity to PDZ MAGI1_3 (converted).
The next experiment concerns the target MAGI1_5 PDZ (Homo sapiens, UniProt Q96QZ7). As to conditions: sheet PPI_convert; read-out: affinity to PDZ MAGI1_5 (converted).
For a further experiment, the target named is MAGI1_6 PDZ (Homo sapiens, UniProt Q96QZ7). As to conditions: sheet PPI_convert; read-out: affinity to PDZ MAGI1_6 (converted).
A further experiment has as its target MAGI3_4 PDZ (Homo sapiens, UniProt Q5TCQ9). As to conditions: sheet PPI_convert; read-out: affinity to PDZ MAGI3_4 (converted).
The target in a further experiment is MAGI3_6 PDZ (Homo sapiens, UniProt Q5TCQ9). As to conditions: sheet PPI_convert; read-out: affinity to PDZ MAGI3_6 (converted).
The next experiment deals with MAGIX PDZ (Homo sapiens, UniProt Q9H6Y5). As to conditions: sheet PPI_convert; read-out: affinity to PDZ MAGIX (converted). From the text: Supplement 41467_2022_33018_MOESM4_ESM.xlsx, sheet "PPI_convert" | column: MAGIX
In the next experiment the target is MLLT4 PDZ (Homo sapiens, UniProt P55196). As to conditions: sheet PPI_convert; read-out: affinity to PDZ MLLT4 (converted). The text has this: Supplement 41467_2022_33018_MOESM4_ESM.xlsx, sheet "PPI_convert" | column: MLLT4
The next experiment has as its target MPDZ_13 PDZ (Homo sapiens, UniProt O75970). As to conditions: sheet PPI_convert; read-out: affinity to PDZ MPDZ_13 (converted).
The target of another experiment is MPP3 PDZ (Homo sapiens, UniProt Q13368). As to conditions: sheet PPI_convert; read-out: affinity to PDZ MPP3 (converted).
For a further experiment, the target named is NHERF4_3 PDZ (Homo sapiens, UniProt Q86UT5). As to conditions: sheet PPI_convert; read-out: affinity to PDZ NHERF4_3 (converted).
The next experiment has as its target PARD3B_3 PDZ (Homo sapiens, UniProt Q8TEW8). As to conditions: sheet PPI_convert; read-out: affinity to PDZ PARD3B_3 (converted).
Another experiment deals with PDLIM4 PDZ (Homo sapiens, UniProt P50479). As to conditions: sheet PPI_convert; read-out: affinity to PDZ PDLIM4 (converted). From the text: Supplement 41467_2022_33018_MOESM4_ESM.xlsx, sheet "PPI_convert" | column: PDLIM4
The next experiment has as its target PDZD2_5 PDZ (Homo sapiens, UniProt O15018). As to conditions: sheet PPI_convert; read-out: affinity to PDZ PDZD2_5 (converted).
For a further experiment, the target named is PDZD4 PDZ (Homo sapiens, UniProt Q76G19). As to conditions: sheet PPI_convert; read-out: affinity to PDZ PDZD4 (converted). From the text: Supplement 41467_2022_33018_MOESM4_ESM.xlsx, sheet "PPI_convert" | column: PDZD4
A further experiment concerns the target PDZRN3_2 PDZ (Homo sapiens, UniProt Q9UPQ7). As to conditions: sheet PPI_convert; read-out: affinity to PDZ PDZRN3_2 (converted).
A further experiment has as its target DFNB31_1 PDZ (Homo sapiens, UniProt Q9P202). As to conditions: composite holdup affinity; 0.00=below quantification threshold; read-out: COMP pKd (converted).

MPP3 PDZ, sequence (Q13368 137-212 limits assumed): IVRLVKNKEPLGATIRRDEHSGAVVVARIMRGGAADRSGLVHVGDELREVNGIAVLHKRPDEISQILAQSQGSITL
PDZRN3_2 PDZ, sequence (Q9UPQ7 419-503 limits assumed): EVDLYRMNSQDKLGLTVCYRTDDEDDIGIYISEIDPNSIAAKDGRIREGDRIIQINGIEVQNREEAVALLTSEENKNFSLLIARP
MLLT4 PDZ, sequence (P55196 1007-1093 limits assumed): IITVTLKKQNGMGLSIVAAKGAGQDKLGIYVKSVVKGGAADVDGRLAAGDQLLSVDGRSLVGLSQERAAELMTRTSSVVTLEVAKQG
MAGIX PDZ, sequence (Q9H6Y5 125-209): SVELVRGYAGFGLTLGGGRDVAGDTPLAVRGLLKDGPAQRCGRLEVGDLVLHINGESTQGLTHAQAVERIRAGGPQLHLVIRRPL
Inadl_8 PDZ, sequence (Q8NI35 1437-1520 limits assumed): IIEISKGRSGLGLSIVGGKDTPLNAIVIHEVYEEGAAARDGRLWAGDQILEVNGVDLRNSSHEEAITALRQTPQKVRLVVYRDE
PDZD4 PDZ, sequence (Q76G19 130-214 limits assumed): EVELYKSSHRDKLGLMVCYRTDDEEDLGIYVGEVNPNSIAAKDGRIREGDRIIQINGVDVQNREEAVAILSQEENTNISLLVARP
GRIP2_2 PDZ, sequence (Q9C0E4 148-234 limits assumed): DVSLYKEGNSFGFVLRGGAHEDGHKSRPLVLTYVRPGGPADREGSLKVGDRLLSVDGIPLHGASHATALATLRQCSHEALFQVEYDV
MAGI3_6 PDZ, sequence (Q5TCQ9 1021-1103 limits assumed): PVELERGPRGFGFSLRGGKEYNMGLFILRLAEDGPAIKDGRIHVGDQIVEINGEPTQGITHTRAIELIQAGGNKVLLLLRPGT
NHERF4_3 PDZ, sequence (Q86UT5 329-412 limits assumed): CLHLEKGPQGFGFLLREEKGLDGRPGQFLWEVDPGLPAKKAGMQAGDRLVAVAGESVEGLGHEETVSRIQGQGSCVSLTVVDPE
RADIL PDZ, sequence (Q96JH8 976-1061 limits assumed): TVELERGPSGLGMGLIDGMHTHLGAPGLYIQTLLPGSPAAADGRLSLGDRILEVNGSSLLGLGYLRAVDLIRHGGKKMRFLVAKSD
MAGI1_3 PDZ, sequence (Q96QZ7 643-721 limits assumed): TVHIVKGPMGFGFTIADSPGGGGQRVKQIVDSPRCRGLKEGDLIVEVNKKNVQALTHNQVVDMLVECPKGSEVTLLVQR
MAGI3_4 PDZ, sequence (Q5TCQ9 726-808 limits assumed): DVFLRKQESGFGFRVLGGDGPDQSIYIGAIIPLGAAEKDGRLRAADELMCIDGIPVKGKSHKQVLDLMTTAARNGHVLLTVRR
MAGI1_4 PDZ, sequence (Q96QZ7 813-895 limits assumed): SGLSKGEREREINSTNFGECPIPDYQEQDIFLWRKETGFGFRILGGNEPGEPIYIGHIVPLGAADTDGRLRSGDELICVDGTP
LNX2_2 PDZ, sequence (Q8N448 339-422 limits assumed): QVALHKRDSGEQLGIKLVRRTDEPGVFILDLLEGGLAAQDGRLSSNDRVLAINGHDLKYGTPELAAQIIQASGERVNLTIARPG
MAGI1_5 PDZ, sequence (Q96QZ7 970-1066 limits assumed): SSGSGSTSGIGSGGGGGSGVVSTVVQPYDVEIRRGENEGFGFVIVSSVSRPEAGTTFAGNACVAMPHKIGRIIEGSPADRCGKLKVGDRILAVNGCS
PDZD2_5 PDZ, sequence (O15018 2622-2706 limits assumed): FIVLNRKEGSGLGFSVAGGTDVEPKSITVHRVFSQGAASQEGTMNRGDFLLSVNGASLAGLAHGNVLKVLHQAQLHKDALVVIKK
DFNB31_1 PDZ, sequence (Q9P202 140-223 limits assumed): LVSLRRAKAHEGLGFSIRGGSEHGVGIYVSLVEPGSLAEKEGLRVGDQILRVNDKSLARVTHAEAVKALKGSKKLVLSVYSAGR
IL16_2 PDZ, sequence (Q14005 355-440 limits assumed): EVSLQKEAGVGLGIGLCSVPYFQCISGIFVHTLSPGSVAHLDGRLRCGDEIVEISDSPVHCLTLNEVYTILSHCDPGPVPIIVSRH
MAGI2_6 PDZ, sequence (Q86UL8 1147-1229 limits assumed): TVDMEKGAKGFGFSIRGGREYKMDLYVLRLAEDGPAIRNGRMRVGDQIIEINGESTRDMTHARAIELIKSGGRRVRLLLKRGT
DLG5_2 PDZ, sequence (Q8TDM6 705-796 limits assumed): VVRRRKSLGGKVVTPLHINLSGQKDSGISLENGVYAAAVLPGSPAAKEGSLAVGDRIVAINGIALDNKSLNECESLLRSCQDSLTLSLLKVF
MPDZ_13 PDZ, sequence (O75970 1987-2070 limits assumed): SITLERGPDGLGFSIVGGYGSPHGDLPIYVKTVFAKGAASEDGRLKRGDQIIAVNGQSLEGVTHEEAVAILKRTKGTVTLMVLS
MAGI1_6 PDZ, sequence (Q96QZ7 1124-1206 limits assumed): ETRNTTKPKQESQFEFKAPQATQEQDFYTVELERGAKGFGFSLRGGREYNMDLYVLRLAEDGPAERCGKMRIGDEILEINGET
DLG5_4 PDZ, sequence (Q8TDM6 1501-1582 limits assumed): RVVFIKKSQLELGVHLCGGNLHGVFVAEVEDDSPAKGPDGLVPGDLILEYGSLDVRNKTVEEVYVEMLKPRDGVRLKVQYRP
MPDZ_10 PDZ, sequence (O75970 1629-1712 limits assumed): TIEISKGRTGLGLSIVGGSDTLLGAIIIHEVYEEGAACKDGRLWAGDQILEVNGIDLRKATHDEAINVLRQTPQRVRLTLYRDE
PDLIM4 PDZ, sequence (P50479 1-84 limits assumed): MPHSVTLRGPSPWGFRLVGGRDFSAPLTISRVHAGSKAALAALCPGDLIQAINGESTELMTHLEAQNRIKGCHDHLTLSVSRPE
PARD3B_3 PDZ, sequence (Q8TEW8 498-585 limits assumed): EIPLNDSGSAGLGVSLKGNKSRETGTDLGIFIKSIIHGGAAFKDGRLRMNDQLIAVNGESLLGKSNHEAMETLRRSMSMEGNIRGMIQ
Inadl_5 PDZ, sequence (Q8NI35 686-772 limits assumed): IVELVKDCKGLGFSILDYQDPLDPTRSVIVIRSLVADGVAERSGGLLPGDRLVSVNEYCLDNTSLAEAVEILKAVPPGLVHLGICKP

Regarding SKPTRRETEV [HPV35-E6], the Kd at MAGI2_6 PDZ is 324 µM; at DLG5_2 PDZ, 19.1 µM; at DLG5_4 PDZ, 219 µM; on IL16_2 PDZ, 269 µM; at MAGI1_3 PDZ it was 81.3 µM; at MAGI1_5 PDZ, 37.2 µM. The Kd was 219 µM on MAGI1_6 PDZ; 174 µM on MAGI3_4 PDZ; 155 µM at MAGI3_6 PDZ; 275 µM at MAGIX PDZ; 162 µM at MLLT4 PDZ; 170 µM at MPDZ_13 PDZ. The Kd at MPP3 PDZ is 200 µM; at NHERF4_3 PDZ, 166 µM; on PARD3B_3 PDZ, 186 µM; on PDLIM4 PDZ, 69.2 µM; at PDZD2_5 PDZ, 170 µM; on PDZD4 PDZ it was 282 µM. Moreover, the Kd at PDZRN3_2 PDZ is 269 µM.

Regarding `CC(C)C[C@H](NC(=O)[C@@H](N)CCCNC(=N)N)C(=O)N[C@@H](CCC(N)=O)C(=O)N[C@@H](CCCNC(=N)N)C(=O)N[C@@H](CCCNC(=N)N)C(=O)N[C@@H](CCCNC(=N)N)C(=O)N[C@@H](CCC(=O)O)C(=O)N[C@H](C(=O)N[C@@H](CCC(N)=O)C(=O)N[C@H](C(=O)O)C(C)C)[C@@H](C)O` [HPV18-E6], the pKd at LNX2_2 PDZ was 3.17; at GOPC PDZ it was 3.18; at RADIL PDZ, 3.28; on Inadl_8 PDZ, 3.32; at Inadl_5 PDZ it was 3.52; on MPDZ_10 PDZ it was 3.56. Moreover, the pKd on GRIP2_2 PDZ was 4.48; on MAGI1_4 PDZ, 4.28.

SRRPRTETQV [HPV31-E6]: at DFNB31_1 PDZ, the Kd is 282 µM.
